Measurements from article PMC9785969, “Synthesis, Biological Evaluation, and Molecular Dynamics of Carbothioamides Derivatives as Carbonic Anhydrase II and 15-Lipoxygenase Inhibitors” (Molecules, 2022).
Entries after “also recorded” stand apart in the source; their conditions may differ. Where two headings read alike, the source gives them in different places.

Assays:
[1] = target: bovine carbonic anhydrase II (b-CA II) (Bos taurus, UniProt P00921); test: Carbonic anhydrase (b-CA II) inhibition assay, p-nitrophenyl acetate hydrolysis; type: biochemical; conditions: for selectivity for b-CA II over 15-LOX: b-CA II vs 15-LOX
bovine carbonic anhydrase II (b-CA II), sequence (P00921 whole entry): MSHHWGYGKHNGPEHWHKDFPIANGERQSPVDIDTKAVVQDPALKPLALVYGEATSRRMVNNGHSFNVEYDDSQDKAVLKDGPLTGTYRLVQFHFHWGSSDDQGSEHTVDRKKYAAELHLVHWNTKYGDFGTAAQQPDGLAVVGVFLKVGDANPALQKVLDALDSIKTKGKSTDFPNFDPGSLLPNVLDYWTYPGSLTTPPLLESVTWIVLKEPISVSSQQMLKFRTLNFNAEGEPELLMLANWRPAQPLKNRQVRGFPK
Description: Carbonic anhydrase (b-CA II) inhibition activity was determined according to the previously reported protocol. IC50 values were calculated through GraphPad PRISM 5.0 Software Inc., San Diego, CA, USA.
This method is based on the spectrophotometric determination of hydrolytic product of substrate p-nitrophenyl acetate substrate. Assay volume was kept at 100 µL, comprised of 60 µL of Tris-sulfate buffer (50 mM, 0.1 mM ZnCl2 at pH 7.6), 10 µL of test compound with concentration of 50 µM and 10 µL (50 U) of b-CA II. The reaction mixture was incubated at 25 °C for 10 min and […]
Reaction was initiated by addition of 20 µL of p-nitrophenyl acetate (6mM) as substrate and incubated for further 30 min. […]
test compounds. All experiments were performed in triplicate and dose response curves were […]
(1 picture or pasted object on this page, not shown here)

15-lipoxygenase (15-LOX) = target: T1, 15-lipoxygenase (15-LOX) (Glycine max, UniProt P08170); test: Lipoxygenase (15-LOX) inhibition assay, linoleic acid substrate, absorbance 234 nm; type: biochemical; conditions: for IC50: mean of three experiments, read-out: 15-LOX IC50 ± SEM; for inhibition at 100 µM: final concentration of 100 μM
T1 sequence (P08170 1-839): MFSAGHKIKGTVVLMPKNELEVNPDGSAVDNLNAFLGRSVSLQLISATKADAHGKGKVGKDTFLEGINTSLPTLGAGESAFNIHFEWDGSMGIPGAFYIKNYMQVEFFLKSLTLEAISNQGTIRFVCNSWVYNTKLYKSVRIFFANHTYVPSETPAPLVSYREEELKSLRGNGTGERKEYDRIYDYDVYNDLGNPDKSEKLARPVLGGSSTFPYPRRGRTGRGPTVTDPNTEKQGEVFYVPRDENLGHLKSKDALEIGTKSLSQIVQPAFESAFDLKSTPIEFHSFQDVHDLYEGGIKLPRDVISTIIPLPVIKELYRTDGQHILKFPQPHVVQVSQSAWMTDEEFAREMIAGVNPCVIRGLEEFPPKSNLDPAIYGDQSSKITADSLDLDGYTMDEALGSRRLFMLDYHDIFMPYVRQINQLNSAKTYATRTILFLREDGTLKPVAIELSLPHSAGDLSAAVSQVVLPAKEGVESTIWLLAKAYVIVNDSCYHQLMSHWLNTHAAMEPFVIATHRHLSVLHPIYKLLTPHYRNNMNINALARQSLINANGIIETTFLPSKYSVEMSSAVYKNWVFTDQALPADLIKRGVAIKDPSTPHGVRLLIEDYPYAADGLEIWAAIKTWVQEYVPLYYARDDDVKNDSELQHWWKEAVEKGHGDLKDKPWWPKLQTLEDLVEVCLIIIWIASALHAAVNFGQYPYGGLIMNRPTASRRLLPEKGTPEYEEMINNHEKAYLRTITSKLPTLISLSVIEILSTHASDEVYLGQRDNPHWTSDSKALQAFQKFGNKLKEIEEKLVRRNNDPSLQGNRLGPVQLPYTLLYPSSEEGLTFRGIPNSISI
Description: The lipoxygenase activity was determined with the some modifications to the reported method. The compounds were first screened at 0.1 mM. Assay buffer was made containing 100 mM KH2PO4 and the pH was adjusted at 8.0. Initially, 145 µL of assay buffer was added in each well of a 96-well plate, followed by the addition of 10 µL of 15-LOX enzyme (42.5 units/well). Then, 20 µL of test compound was added in each well and incubated for 10 min at 25 °C. Absorbance was measured at 234 nm by multimode micro-plate reader, FLUOstar Omega, Germany as a pre-read value. Further reaction was carried out by adding of 25 µL of substrate linoleic acid and incubation for 10 min at 25 °C. After incubation, absorbance was calculated again at 234 nm as after read. […] The IC50 values for all experiments were determined using a nonlinear curve fitting tool and all experiments were carried out in triplicate format in GraphPad PRISM 5.0 (GraphPad, San Diego, CA, USA).

[2] = mean of three experiments, read-out: b-CA II IC50 ± SEM

SMILES | IC50 [1, 2] [nM] | IC50 (15-lipoxygenase (15-LOX)) [nM] | melting point [°C] | selectivity for b-CA II over 15-LOX [1] | inhibition at 100 µM (15-lipoxygenase (15-LOX)) [%] | IC50 [1] [nM] | fold higher potential towards b-CA II compared with standard inhibitor acetazolamide ([1]; vs acetazolamide)
COc1cc2cc(OC)c(OC)c(/C=N/NC(N)=S)c2cc1OC [3a] | 310 ± 10 | 370 ± 20 | 240 | – | – | – | –
C#CCN(C)c1ccc(/C=N/NC(N)=S)cc1 [3b] | 4970 ± 160 | – | 245 | selective towards b-CA II; also recorded: selective inhibitors of CA II | < 50 | – | –
NC(=S)N/N=C/c1ccccc1F [3c] | 2020 ± 120 | 160 ± 10 | – | – | – | – | –
NC(=S)N/N=C/c1cc([N+](=O)[O-])ccc1Cl [3d] | 280 ± 10 | – | 248 | selective towards b-CA II; also recorded: selective inhibitors of CA II | < 50 | – | –
COc1ccc(/C=N/NC(N)=S)cc1O [3e] | 380 ± 20 | 1340 ± 140 | – | – | – | – | –
NC(=S)N/N=C/c1ccc(Br)s1 [3f] | 10200 ± 210 | 820 ± 190 | 243 | – | – | – | –
NC(=S)N/N=C/c1c(F)cccc1Cl [3g] | 840 ± 50 | – | – | selective towards b-CA II; also recorded: selective inhibitors of CA II | < 50 | – | –
NC(=S)N/N=C/c1cccc(F)c1 [3h] | – | 140 ± 10 | – | – | – | 130 ± 10 | ≈ 7 fold
